From patent publication JP2022046588A, “治療用組成物およびその使用” (priority 2016, dated 2017)
Read-outs that look alike come from different tables or passages of the source.

Legend:
[1] = test system: human epidermoid carcinoma cell line A-431 [ヒト類表皮癌細胞株A-431]; experiment: MTT cell proliferation assay, A-431; assay type: cell-based; details: for inhibition at 50 µg/mL: Homo sapiens, A-431, Example 7, 50 μg/ml, 24 h
[2] = test system: human basal cell carcinoma cell line TE 354.T [ヒト基底細胞癌細胞株TE 354.T]; experiment: MTT cell proliferation assay, TE 354.T; assay type: cell-based; details: for inhibition at 50 µg/mL: Homo sapiens, Example 8, 50 μg/ml, 24 h
[3] = test system: human colon adenocarcinoma cell line DLD-1 [ヒト結腸腺癌細胞株DLD-1]; experiment: MTT cell proliferation assay, DLD-1; assay type: cell-based
[4] = test system: human esophageal cancer cell line KYSE-30 [ヒト食道癌細胞株KYSE-30]; experiment: MTT cell proliferation assay, KYSE-30; assay type: cell-based; details: for inhibition at 58.5 µg/mL: low but significant
[5] = test system: human gastric cancer cell line NCI-N87 [ヒト胃癌細胞株NCI-N87]; experiment: MTT cell proliferation assay, NCI-N87
[6] = test system: human melanoma cell line A-2058 [ヒト黒色腫細胞株A-2058]; experiment: MTT cell proliferation assay, A-2058; assay type: cell-based
[7] = Homo sapiens, NCI-N87, read-out: antiproliferative activity

Structure (SMILES): CCCCCCCCCCCCC(O)CCCCC(O)CC(=O)OCC(O)COC(C)=O (stereo not drawn) [GLY-1Ac-1, 1-(3,8-ジヒドロキシエイコサノイル)3-アセトキシグリセロール]
- inhibition at 50 µg/mL [1]: 80.6%
- inhibition at 50 µg/mL [2]: 27.3%
- inhibition at 25 µg/mL ([3]; Homo sapiens, DLD-1, Example 9, second assay (retest), 25 μg/ml, read-out: antiproliferative activity): 13%
- inhibition at 50 µg/mL ([3]; Homo sapiens, DLD-1, Example 9, second assay (retest), 50 μg/ml, read-out: antiproliferative activity): 94%
- potency ranking (in words) ([4]; Example 13, 50 μg/ml): 最も強力
- inhibition at 10 µg/mL ([4]; Homo sapiens, KYSE-30, Example 13, 10 μg/ml, not statistically significant, read-out: antiproliferative activity): 9%
- inhibition at 25 µg/mL ([4]; Homo sapiens, KYSE-30, Example 13, 25 μg/ml, read-out: antiproliferative activity): 50%
- inhibition at 10 µg/mL [5, 7]: 39%
- inhibition at 25 µg/mL [5, 7]: 86%

Structure (SMILES): O=c1[nH]cc(F)c(=O)[nH]1 [5-フルオロウラシル]
- antiproliferative activity (in words) ([1]; Example 7, 5-FU at 0.195, 0.65 and 1.95 μg/ml): 低い且つ有意ではない活性
- antiproliferative activity (in words) ([2]; Example 8, 5-FU at 0.195, 0.65 and 1.95 μg/ml): 低い且つ有意ではない活性
- antiproliferative activity (in words) ([3]; Example 9, 5-FU at 0.65 and 1.95 μg/ml): 低い且つ有意ではない活性
- antiproliferative activity (in words) ([3]; Example 10, 5-FU at 6.5, 19.5 and 58.5 μg/ml): 低い且つ有意ではない活性
- antiproliferative activity (in words) ([6]; Example 6, 5-FU at 0.195, 0.65 and 1.95 μg/ml): 低い且つ有意ではない活性
- antiproliferative activity (in words) ([4]; Example 13, 5-FU at 6.5 and 19.5 μg/ml): 有意ではない活性
- antiproliferative activity (in words) ([4]; Example 14, 5-FU at 6.5 and 19.5 μg/ml): 有意ではない活性
- inhibition at 58.5 µg/mL ([4]; Homo sapiens, KYSE-30, Example 13, 5-FU at 58.5 μg/ml, read-out: antiproliferative activity): 17%
- inhibition at 58.5 µg/mL ([4]; Homo sapiens, KYSE-30, Example 14, 5-FU at 58.5 μg/ml, read-out: inhibition of proliferation): 16.8%
- activity ranking of 5-FU concentrations (in words) ([5]; Example 11, 5-FU at 6.5 μg/ml (of 6.5, 19.5, 58.5 μg/ml)): 最も高い活性
- antiproliferative activity (in words) ([5]; Example 11, 5-FU at 6.5, 19.5 and 58.5 μg/ml): 低い且つ有意ではない活性
- activity ranking of 5-FU concentrations (in words) ([5]; Example 12, 5-FU at 6.5 μg/ml (of 6.5, 19.5, 58.5 μg/ml)): 最も高い活性
- antiproliferative activity (in words) ([5]; Example 12, 5-FU at 6.5, 19.5 and 58.5 μg/ml): 低い且つ有意ではない活性

Structure (SMILES): CCCCCCCCCCCCCC(O)CCCCC(O)CC(=O)OCC(O)CO (stereo not drawn) [GLY-0Ac-2, 1-(3,8-ジヒドロキシヘンエイコサノイル)グリセロール]
- potency ranking (in words) ([6]; Example 6, 50 μg/ml, highly purified compounds): 最も強力

Structure (SMILES): CCCCCCCCCCCCCCCC(=O)OCC(O)CO (stereo not drawn) [MGP, モノパルミチン酸グリセロール]
- inhibition at 50 µg/mL ([4]; Homo sapiens, KYSE-30, Example 13, 50 μg/ml, read-out: inhibition of proliferation / antiproliferative activity): 75%

Structure (SMILES): CCCCCCCCCCCCC(O)CCCCC(O)CC(=O)OCC(O)CO (stereo not drawn) [GLY-0Ac-1, 1-(3,8-ジヒドロキシエイコサノイル)グリセロール]
- inhibition at 50 µg/mL [1]: 81.5%
- inhibition at 50 µg/mL [2]: 38%

Structure (SMILES): CCCCCCCCCCCCCC(O)CCCCC(O)CC(=O)OCC(O)COC(C)=O (stereo not drawn) [GLY-1Ac-2, 1-(3,8-ジヒドロキシヘンエイコサノイル)3-アセトキシグリセロール]
- potency ranking (in words) ([3]; Example 9, first assay, 50 μg/ml): 最も強力
